From article PMC6264193, “Synthesis and Biological Evaluation of Novel ^99mTc-Labelled Bisphosphonates as Superior Bone Imaging Agents” (Molecules, 2011)

Experiments:
[1] = system: bone resorption; design: method as in PMID 18593621; conditions: preclinical models of bone resorption; cited from earlier work

Cc1nccn1CCC(O)(P(=O)(O)O)P(=O)(O)O [Compound 4a, 1-Hydroxy-3-(2-methyl-1H-imidazol-1-yl)propane-1,1-diyldiphosphonic acid]
melting point: 183 to 186 °C

O=P(O)(O)C(O)(Cn1ccnc1)P(=O)(O)O [ZL, 1-hydroxy-2-(imidazol-1-yl)-ethylidene-1,1-bisphosphonic acid]
potency relative to clodronate and pamidronate [1]: at least 100 times | potency relative to etidronate [1]: at least 1,000 times

Cc1nccn1CCCC(O)(P(=O)(O)O)P(=O)(O)O [Compound 4b, 1-Hydroxy-4-(2-methyl-1H-imidazol-1-yl)butane-1,1-diyldiphosphonic acid]
melting point: 142 to 145 °C

Cc1nccn1CCCCC(O)(P(=O)(O)O)P(=O)(O)O [Compound 4c, 1-Hydroxy-5-(2-methyl-1H-imidazol-1-yl)pentane-1,1-diyldiphosphonic acid]
melting point: 212 to 215 °C
